From the supplement of paper PMC10733146

Legend:
Experiment in all cases: viability relative to DMSO control (fraction); higher = less drug effect (more viable cells)
Conditions in all cases: 48 h
[1] = test system: primary AML patient cells (S055)
Method in brief: (§1)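 Compounds were pre-plated at five concentrations, one well each, in 384-well plates, and primary mononuclear tumour cells were plated on them at 4 × 10^4 cells per well. The cells, fresh or cryopreserved, had been Ficoll-isolated from blood or bone marrow or taken from processed lymph node. After 48 h at 37 °C and 5% CO2 in RPMI-1640 with penicillin/streptomycin, L-glutamine and human serum, viability was read as CellTiter-Glo luminescence relative to the median of 16 inner DMSO wells.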

[2] = test system: primary AML patient cells (S037)
Method in brief: as §1

[3] = test system: primary AML patient cells (S089)
Method in brief: as §1

[4] = test system: primary CLL patient cells (S031)
Method in brief: as §1

[5] = test system: primary T-PLL patient cells (S008)
Method in brief: as §1

[6] = test system: primary MCL patient cells (S053)
Method in brief: as §1

[7] = test system: primary DLBCL patient cells (S082)
Method in brief: as §1

[8] = test system: primary FL patient cells (S087)
Method in brief: as §1

[9] = test system: primary AML patient cells (S056)
Method in brief: as §1

[10] = test system: primary FL patient cells (S022)
Method in brief: as §1

[11] = test system: primary AML patient cells (S072)
Method in brief: as §1

[12] = test system: primary MCL patient cells (S068)
Method in brief: as §1

[13] = test system: primary AML patient cells (S091)
Method in brief: as §1

[14] = test system: primary AML patient cells (S079)
Method in brief: as §1

[15] = test system: primary AML patient cells (S006)
Method in brief: as §1

[16] = test system: primary MCL patient cells (S041)
Method in brief: as §1

[17] = test system: primary AML patient cells (S012)
Method in brief: as §1

[18] = test system: primary ALL patient cells (S048)
Method in brief: as §1

[19] = test system: primary AML patient cells (S009)
Method in brief: as §1

[20] = test system: primary MCL patient cells (S063)
Method in brief: as §1

CO[C@H]1C[C@@H]2CC[C@@H](C)[C@@](O)(O2)C(=O)C(=O)N2CCCC[C@H]2C(=O)O[C@H]([C@H](C)C[C@@H]2CC[C@@H](OC(=O)C(C)(CO)CO)[C@H](OC)C2)CC(=O)[C@H](C)/C=C(\C)[C@@H](O)[C@@H](OC)C(=O)[C@H](C)C[C@H](C)/C=C/C=C/C=C/1C [Temsirolimus]
viability ([1]; 0.032 µM): 0.919 | viability ([1]; 0.16 µM): 0.959 | viability ([1]; 0.8 µM): 0.957 | viability ([1]; 4 µM): 0.955 | viability ([1]; 20 µM): 0.812 | viability ([2]; 0.032 µM): 0.966 | viability ([2]; 0.16 µM): 0.903 | viability ([2]; 0.8 µM): 0.957 | viability ([2]; 4 µM): 0.931 | viability ([2]; 20 µM): 0.807 | viability ([3]; 0.032 µM): 0.752 | viability ([3]; 0.16 µM): 0.831 | viability ([3]; 0.8 µM): 0.673 | viability ([3]; 4 µM): 0.684 | viability ([3]; 20 µM): 0.719 | viability ([4]; 0.032 µM): 0.795 | viability ([4]; 0.16 µM): 0.708 | viability ([4]; 0.8 µM): 0.8 | viability ([4]; 4 µM): 0.831 | viability ([4]; 20 µM): 0.701 | viability ([5]; 0.032 µM): 0.982 | viability ([5]; 0.16 µM): 0.958 | viability ([5]; 0.8 µM): 0.941 | viability ([5]; 4 µM): 0.959 | viability ([5]; 20 µM): 0.878 | viability ([6]; 0.032 µM): 0.884 | viability ([6]; 0.16 µM): 0.879 | viability ([6]; 0.8 µM): 0.927 | viability ([6]; 4 µM): 0.898 | viability ([6]; 20 µM): 0.755 | viability ([7]; 0.032 µM): 0.794 | viability ([7]; 0.16 µM): 0.759 | viability ([7]; 0.8 µM): 0.776 | viability ([7]; 4 µM): 0.804 | viability ([7]; 20 µM): 0.748 | viability ([8]; 0.032 µM): 0.833 | viability ([8]; 0.16 µM): 0.813 | viability ([8]; 0.8 µM): 0.84 | viability ([8]; 4 µM): 0.82 | viability ([8]; 20 µM): 0.713 | viability ([9]; 0.032 µM): 0.606 | viability ([9]; 0.16 µM): 0.789 | viability ([9]; 0.8 µM): 0.847 | viability ([9]; 4 µM): 0.735 | viability ([9]; 20 µM): 0.425 | viability ([10]; 0.032 µM): 0.962 | viability ([10]; 0.16 µM): 0.821 | viability ([10]; 0.8 µM): 0.966 | viability ([10]; 4 µM): 0.917 | viability ([10]; 20 µM): 0.569 | viability ([11]; 0.032 µM): 0.733 | viability ([11]; 0.16 µM): 0.886 | viability ([11]; 0.8 µM): 0.704 | viability ([11]; 4 µM): 0.728 | viability ([11]; 20 µM): 0.604 | viability ([12]; 0.032 µM): 0.604 | viability ([12]; 0.16 µM): 0.614 | viability ([12]; 0.8 µM): 0.608 | viability ([12]; 4 µM): 0.738 | viability ([12]; 20 µM): 1.01 | viability ([13]; 0.032 µM): 0.697 | viability ([13]; 0.16 µM): 0.686 | viability ([13]; 0.8 µM): 0.659 | viability ([13]; 4 µM): 0.663 | viability ([13]; 20 µM): 0.611 | viability ([14]; 0.032 µM): 0.764 | viability ([14]; 0.16 µM): 0.771 | viability ([14]; 0.8 µM): 0.768 | viability ([14]; 4 µM): 0.755 | viability ([14]; 20 µM): 0.675 | viability ([15]; 0.032 µM): 0.824 | viability ([15]; 0.16 µM): 0.746 | viability ([15]; 0.8 µM): 0.709 | viability ([15]; 4 µM): 0.65 | viability ([15]; 20 µM): 0.415 | viability ([16]; 0.032 µM): 0.853 | viability ([16]; 0.16 µM): 0.829 | viability ([16]; 0.8 µM): 0.858 | viability ([16]; 4 µM): 0.848 | viability ([16]; 20 µM): 0.768 | viability ([17]; 0.032 µM): 0.814 | viability ([17]; 0.16 µM): 0.732 | viability ([17]; 0.8 µM): 0.85 | viability ([17]; 4 µM): 0.845 | viability ([17]; 20 µM): 0.702 | viability ([18]; 0.032 µM): 0.747 | viability ([18]; 0.16 µM): 0.706 | viability ([18]; 0.8 µM): 0.702 | viability ([18]; 4 µM): 0.748 | viability ([18]; 20 µM): 0.49 | viability ([19]; 0.032 µM): 0.92 | viability ([19]; 0.16 µM): 0.774 | viability ([19]; 0.8 µM): 0.846 | viability ([19]; 4 µM): 0.769 | viability ([19]; 20 µM): 0.533 | viability ([20]; 0.032 µM): 0.913 | viability ([20]; 0.16 µM): 0.892 | viability ([20]; 0.8 µM): 0.9 | viability ([20]; 4 µM): 0.946 | viability ([20]; 20 µM): 0.843

CC(=O)Nc1cccc(-n2c(=O)n(C3CC3)c(=O)c3c(Nc4ccc(I)cc4F)n(C)c(=O)c(C)c32)c1 [Trametinib]
viability ([1]; 0.0008 µM): 0.797 | viability ([1]; 0.004 µM): 0.582 | viability ([1]; 0.02 µM): 0.585 | viability ([1]; 0.1 µM): 0.559 | viability ([1]; 0.5 µM): 0.558 | viability ([2]; 0.0008 µM): 0.957 | viability ([2]; 0.004 µM): 0.969 | viability ([2]; 0.02 µM): 0.921 | viability ([2]; 0.1 µM): 0.899 | viability ([2]; 0.5 µM): 0.915 | viability ([3]; 0.0008 µM): 0.635 | viability ([3]; 0.004 µM): 0.57 | viability ([3]; 0.02 µM): 0.558 | viability ([3]; 0.1 µM): 0.529 | viability ([3]; 0.5 µM): 0.539 | viability ([4]; 0.0008 µM): 0.648 | viability ([4]; 0.004 µM): 0.49 | viability ([4]; 0.02 µM): 0.379 | viability ([4]; 0.1 µM): 0.349 | viability ([4]; 0.5 µM): 0.311 | viability ([5]; 0.0008 µM): 0.965 | viability ([5]; 0.004 µM): 1.05 | viability ([5]; 0.02 µM): 0.955 | viability ([5]; 0.1 µM): 1.07 | viability ([5]; 0.5 µM): 0.905 | viability ([6]; 0.0008 µM): 0.885 | viability ([6]; 0.004 µM): 0.899 | viability ([6]; 0.02 µM): 0.818 | viability ([6]; 0.1 µM): 0.806 | viability ([6]; 0.5 µM): 0.733 | viability ([7]; 0.0008 µM): 0.835 | viability ([7]; 0.004 µM): 0.828 | viability ([7]; 0.02 µM): 0.727 | viability ([7]; 0.1 µM): 0.702 | viability ([7]; 0.5 µM): 0.651 | viability ([8]; 0.0008 µM): 0.951 | viability ([8]; 0.004 µM): 0.9 | viability ([8]; 0.02 µM): 0.92 | viability ([8]; 0.1 µM): 0.903 | viability ([8]; 0.5 µM): 0.941 | viability ([9]; 0.0008 µM): 0.77 | viability ([9]; 0.004 µM): 0.66 | viability ([9]; 0.02 µM): 0.588 | viability ([9]; 0.1 µM): 0.535 | viability ([9]; 0.5 µM): 0.514 | viability ([10]; 0.0008 µM): 0.845 | viability ([10]; 0.004 µM): 0.986 | viability ([10]; 0.02 µM): 0.851 | viability ([10]; 0.1 µM): 1.18 | viability ([10]; 0.5 µM): 0.824 | viability ([11]; 0.0008 µM): 0.907 | viability ([11]; 0.004 µM): 0.859 | viability ([11]; 0.02 µM): 0.751 | viability ([11]; 0.1 µM): 0.732 | viability ([11]; 0.5 µM): 0.69 | viability ([12]; 0.0008 µM): 0.921 | viability ([12]; 0.004 µM): 0.8 | viability ([12]; 0.02 µM): 0.791 | viability ([12]; 0.1 µM): 0.727 | viability ([12]; 0.5 µM): 0.7 | viability ([13]; 0.0008 µM): 0.438 | viability ([13]; 0.004 µM): 0.308 | viability ([13]; 0.02 µM): 0.288 | viability ([13]; 0.1 µM): 0.299 | viability ([13]; 0.5 µM): 0.272 | viability ([14]; 0.0008 µM): 0.703 | viability ([14]; 0.004 µM): 0.655 | viability ([14]; 0.02 µM): 0.556 | viability ([14]; 0.1 µM): 0.538 | viability ([14]; 0.5 µM): 0.504 | viability ([15]; 0.0008 µM): 0.888 | viability ([15]; 0.004 µM): 0.939 | viability ([15]; 0.02 µM): 0.787 | viability ([15]; 0.1 µM): 0.86 | viability ([15]; 0.5 µM): 0.798 | viability ([16]; 0.0008 µM): 0.989 | viability ([16]; 0.004 µM): 1.04 | viability ([16]; 0.02 µM): 1.03 | viability ([16]; 0.1 µM): 1.01 | viability ([16]; 0.5 µM): 1.02 | viability ([17]; 0.0008 µM): 0.799 | viability ([17]; 0.004 µM): 0.808 | viability ([17]; 0.02 µM): 0.45 | viability ([17]; 0.1 µM): 0.406 | viability ([17]; 0.5 µM): 0.306 | viability ([18]; 0.0008 µM): 0.818 | viability ([18]; 0.004 µM): 0.766 | viability ([18]; 0.02 µM): 0.674 | viability ([18]; 0.1 µM): 0.666 | viability ([18]; 0.5 µM): 0.592 | viability ([19]; 0.0008 µM): 1.09 | viability ([19]; 0.004 µM): 1.17 | viability ([19]; 0.02 µM): 1.24 | viability ([19]; 0.1 µM): 1.24 | viability ([19]; 0.5 µM): 1.04 | viability ([20]; 0.0008 µM): 0.991 | viability ([20]; 0.004 µM): 0.973 | viability ([20]; 0.02 µM): 0.987 | viability ([20]; 0.1 µM): 0.949 | viability ([20]; 0.5 µM): 0.936
